Data taken from ChEMBL document CHEMBL5108044, “Discovery of a Novel Potent STAT3 Inhibitor HP590 with Dual p-Tyr705/Ser727 Inhibitory Activity for Gastric Cancer Treatment” (J Med Chem, 2022).

Key:
[1] = target: Signal transducer and activator of transcription 3 (Homo sapiens, UniProt P40763); experiment: Inhibition of human recombinant STAT3 (127 to 722 residues) transcriptional activity expressed in HEK293T cells in presence of IL-6 by Dual-luciferase reporter gene assay; format: cell-based
[2] = Inhibition of ATP production in human MKN-45 cells incubated for 20 to 24 hrs by ATP assay kit method; format: functional, cell-based
MKN-45 = experiment: Antiproliferative activity against human MKN-45 cells assessed as reduction in cell viability incubated for 72 hrs by MTS assay; format: functional, cell-based; details: MKN-45, 72 h
MGC-803 = experiment: Antiproliferative activity against human MGC-803 cells assessed as reduction in cell viability incubated for 72 hrs by MTS assay; format: functional, cell-based; details: MGC-803, 72 h
AGS = experiment: Antiproliferative activity against human AGS cells assessed as reduction in cell viability incubated for 72 hrs by MTS assay; format: functional, cell-based

Signal transducer and activator of transcription 3, sequence (P40763 whole entry, the tested form may be a part): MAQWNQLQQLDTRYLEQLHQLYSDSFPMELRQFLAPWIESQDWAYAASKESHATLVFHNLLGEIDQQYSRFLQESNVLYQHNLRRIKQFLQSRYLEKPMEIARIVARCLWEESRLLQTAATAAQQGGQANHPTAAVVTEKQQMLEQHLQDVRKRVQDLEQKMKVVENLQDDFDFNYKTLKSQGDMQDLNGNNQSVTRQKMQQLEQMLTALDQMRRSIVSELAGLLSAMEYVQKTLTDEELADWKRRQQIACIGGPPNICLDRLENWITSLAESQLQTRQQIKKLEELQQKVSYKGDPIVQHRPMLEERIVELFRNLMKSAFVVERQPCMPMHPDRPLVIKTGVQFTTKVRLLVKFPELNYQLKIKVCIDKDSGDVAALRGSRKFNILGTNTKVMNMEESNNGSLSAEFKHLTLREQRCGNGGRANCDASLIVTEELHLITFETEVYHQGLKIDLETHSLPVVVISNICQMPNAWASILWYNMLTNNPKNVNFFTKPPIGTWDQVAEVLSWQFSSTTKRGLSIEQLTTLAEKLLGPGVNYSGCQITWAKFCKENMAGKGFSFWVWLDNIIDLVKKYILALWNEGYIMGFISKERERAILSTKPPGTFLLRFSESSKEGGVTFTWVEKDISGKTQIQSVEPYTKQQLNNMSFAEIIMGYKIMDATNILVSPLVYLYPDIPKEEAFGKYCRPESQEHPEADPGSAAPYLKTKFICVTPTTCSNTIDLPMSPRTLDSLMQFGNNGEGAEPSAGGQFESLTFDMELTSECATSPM

| IC50 [1] [nM] | IC50 [2] [nM] | IC50 (MKN-45) [nM] | IC50 (MGC-803) [nM] | IC50 (AGS) [nM] | Compound |
| --- | --- | --- | --- | --- | --- |
| 359 | – | – | – | – | O=C(Cc1ccc(OC(F)(F)F)cc1)N1CCN(C(=O)c2ccc(-c3nc(-c4ccc(C(F)(F)F)cc4)no3)nc2)CC1 |
| 40.2 | 520 | 108 | 67.6 | 77.8 | O=C(c1ccc(-c2nc(-c3ccc(C(F)(F)F)cc3)no2)nc1)N1CCN(Cc2ccc(Br)cc2)CC1 |
| > 1000 | – | – | – | – | O=C(c1ccc(-c2nc(-c3ccccc3F)no2)nc1)N1CCN(Cc2ccc(OCC(F)(F)F)cc2)CC1 |
| 803 | – | – | – | – | O=C(c1ccc(-c2nc(-c3ccc(C(F)(F)F)cc3)no2)nc1)N1CCN(Cc2cccc(OCC(F)(F)F)c2)CC1 |
| > 1000 | – | – | – | – | O=C(c1ccc(-c2nc(-c3cccs3)no2)nc1)N1CCN(Cc2ccc(OCC(F)(F)F)cc2)CC1 |
| > 1000 | – | – | – | – | O=C(c1ccc(-c2nc(-c3cncs3)no2)nc1)N1CCN(Cc2ccc(OCC(F)(F)F)cc2)CC1 |
| 2790 | – | – | – | – | CN1CCN(C(=O)c2ccc(-c3nc(-c4ccc(C(F)(F)F)cc4)no3)nc2)CC1 |
| > 1000 | – | – | – | – | O=C(c1ccc(-c2nc(-c3ccc(C(F)(F)F)cc3)no2)nc1)N1CCN(Cc2ccccc2OC(F)(F)F)CC1 |
| 113 | – | – | – | – | O=C(c1ccc(-c2cn(-c3ccc(C(F)(F)F)cc3)nn2)nc1)N1CCN(Cc2ccc(OCC(F)(F)F)cc2)CC1 |
| 182 | – | – | – | – | Cc1ccc(CN2CCN(C(=O)c3ccc(-c4nc(-c5ccc(C(F)(F)F)cc5)no4)nc3)CC2)cc1 |
| > 1000 | – | – | – | – | O=C(c1ncc(-c2nc(-c3ccc(C(F)(F)F)cc3)no2)s1)N1CCN(Cc2ccc(OCC(F)(F)F)cc2)CC1 |
| 130 | – | – | – | – | O=C(c1ccc(-c2nc(-c3cccc(C(F)(F)F)c3)no2)nc1)N1CCN(Cc2ccc(OCC(F)(F)F)cc2)CC1 |
| 52.1 | 55.9 | 41.6 | 28.1 | 27.1 | O=C(c1cccc(-c2nc(-c3ccc(C(F)(F)F)cc3)no2)c1)N1CCN(Cc2ccc(OCC(F)(F)F)cc2)CC1 |
| 167 | – | – | – | – | O=C(c1ccc(-c2nc(-c3ccc(C(F)(F)F)cc3)no2)s1)N1CCN(Cc2ccc(OCC(F)(F)F)cc2)CC1 |
| > 1000 | – | – | – | – | O=C(c1ccc(-c2nc(-c3ccccc3C(F)(F)F)no2)nc1)N1CCN(Cc2ccc(OCC(F)(F)F)cc2)CC1 |
| 258 | – | – | – | – | Cc1ccc(-c2noc(-c3ccc(C(=O)N4CCN(Cc5ccc(OCC(F)(F)F)cc5)CC4)cn3)n2)cc1 |
| > 1000 | – | – | – | – | O=C(c1ccc(OC(F)(F)F)cc1)N1CCN(C(=O)c2ccc(-c3nc(-c4ccc(C(F)(F)F)cc4)no3)nc2)CC1 |
| 88.1 | 200 | 54.5 | 31.8 | 67.6 | CC(C)(C)c1ccc(CN2CCN(C(=O)c3ccc(-c4nc(-c5ccc(C(F)(F)F)cc5)no4)nc3)CC2)cc1 |
| – | – | 3940 | 872 | 437 | CC(=O)c1cc2c(o1)C(=O)c1ccccc1C2=O [NAPABUCASIN] |
| > 1000 | – | – | – | – | Nc1ccc(CN2CCN(C(=O)c3ccc(-c4nc(-c5ccc(C(F)(F)F)cc5)no4)nc3)CC2)cc1 |
| 40.2 | 218 | 21.2 | 22.2 | 21.5 | O=C(c1ccc(-c2nc(-c3ccc(C(F)(F)F)c(F)c3)no2)nc1)N1CCN(Cc2ccc(OCC(F)(F)F)cc2)CC1 |
| 306 | – | – | – | – | CC(=O)Oc1ccc(CN2CCN(C(=O)c3ccc(-c4nc(-c5ccc(C(F)(F)F)cc5)no4)nc3)CC2)cc1 |
| > 1000 | – | – | – | – | O=C(c1ccc(-c2nc(-c3ccc(C(F)(F)F)cc3)no2)nc1)N1CCN(Cc2ccccc2OCC(F)(F)F)CC1 |
| 533 | – | – | – | – | CCCN1CCN(C(=O)c2ccc(-c3nc(-c4ccc(C(F)(F)F)cc4)no3)nc2)CC1 |
| 296 | – | – | – | – | O=C(c1ccc(-c2nc(-c3ccc(C(F)(F)F)cc3)no2)nc1)N1CCN(Cc2ccc(Br)c(F)c2)CC1 |
| 325 | – | – | – | – | O=C(c1ccc(-c2nc(-c3ccc(C(F)(F)F)cc3)no2)nc1)N1CCN(Cc2cccc(OC(F)(F)F)c2)CC1 |
| > 1000 | – | – | – | – | O=C(c1ccc(-c2nc(-c3ccccc3)no2)nc1)N1CCN(Cc2ccc(OCC(F)(F)F)cc2)CC1 |
| 63.6 | 598 | 16.4 | 12.7 | 59.8 | O=C(c1ccc(-c2nc(-c3ccc(C(F)(F)F)cc3)no2)nc1)N1CCN(Cc2ccc(OC(F)(F)F)cc2)CC1 |

| IC50 [1] [nM] | IC50 [2] [nM] | IC50 (MKN-45) [nM] | IC50 (MGC-803) [nM] | IC50 (AGS) [nM] | Compound |
| --- | --- | --- | --- | --- | --- |
| > 1000 | – | – | – | – | O=C(c1ccc(-c2nc(-c3ccc(C(F)(F)F)cc3C(F)(F)F)no2)nc1)N1CCN(Cc2ccc(OCC(F)(F)F)cc2)CC1 |
| > 1000 | – | – | – | – | CCN1CCN(C(=O)c2ccc(-c3nc(-c4ccc(C(F)(F)F)cc4)no3)nc2)CC1 |
| 177 | – | – | – | – | O=C(c1ccc(-c2nc(-c3cccc(F)c3)no2)nc1)N1CCN(Cc2ccc(OCC(F)(F)F)cc2)CC1 |
| 304 | – | – | – | – | O=C(c1ccc(-c2nc(-c3ccc(C(F)(F)F)cc3)no2)nc1)N1CCN(Cc2ccc(F)cc2)CC1 |
| 147 | – | – | – | – | COc1ccc(CN2CCN(C(=O)c3ccc(-c4nc(-c5ccc(C(F)(F)F)cc5)no4)nc3)CC2)cc1 |
| 93.2 | – | – | – | – | O=C(c1ccc(-c2nc(-c3ccc(Br)cc3)no2)nc1)N1CCN(Cc2ccc(OCC(F)(F)F)cc2)CC1 |
| 123 | – | – | – | – | O=C(c1ccc(-c2nc(-c3ccc(F)cc3)no2)nc1)N1CCN(Cc2ccc(OCC(F)(F)F)cc2)CC1 |
| 94.1 | – | – | – | – | O=C(c1ccc(-c2nc(-c3ccc(C(F)(F)F)cc3)co2)nc1)N1CCN(Cc2ccc(OCC(F)(F)F)cc2)CC1 |
| 58 | 242 | 49.5 | 32.4 | 27.2 | O=C(c1cnc(-c2noc(-c3ccc(C(F)(F)F)cc3)n2)cn1)N1CCN(Cc2ccc(OCC(F)(F)F)cc2)CC1 |
| 108 | – | – | – | – | O=C(c1ccc(-c2nc(-c3ccc(C(F)(F)F)cc3)no2)nc1)N1CCN(Cc2ccc(Cl)cc2)CC1 |
| 273 | – | – | – | – | CS(=O)(=O)c1ccc(CN2CCN(C(=O)c3ccc(-c4nc(-c5ccc(C(F)(F)F)cc5)no4)nc3)CC2)cc1 |
| 564 | – | – | – | – | O=C(c1ccc(-c2nc(-c3ccc(C(F)(F)F)cc3)no2)nc1)N1CCN(Cc2ccc(Br)cc2F)CC1 |
| 37.4 | 72.5 | 18.4 | 11.5 | 8.4 | O=C(c1ccc(-c2nc(-c3ccc(C(F)(F)F)cc3)no2)nc1)N1CCN(Cc2ccc(OCC(F)(F)F)cc2)CC1 |
| 60.2 | 93.2 | 36.4 | 23.3 | 23.5 | O=C(c1ccc(-c2nc(-c3ccc(OC(F)(F)F)cc3)no2)nc1)N1CCN(Cc2ccc(OCC(F)(F)F)cc2)CC1 |
| 477 | – | – | – | – | N#Cc1ccc(CN2CCN(C(=O)c3ccc(-c4nc(-c5ccc(C(F)(F)F)cc5)no4)nc3)CC2)cc1 |
| > 1000 | – | – | – | – | O=C(c1ccc(-c2nc(-c3ccc(C(F)(F)F)cc3)no2)nc1)N1CCN(Cc2ccc(NCC(F)(F)F)cc2)CC1 |
| 32.3 | 87.6 | 153 | 13.1 | 8.7 | O=C(c1cc(-c2nc(-c3ccc(C(F)(F)F)cc3)no2)ccn1)N1CCN(Cc2ccc(OCC(F)(F)F)cc2)CC1 |
| 271 | – | – | – | – | O=C(c1ccc(-c2nc(-c3ccc(Cl)cc3)no2)nc1)N1CCN(Cc2ccc(OCC(F)(F)F)cc2)CC1 |
| 75.9 | 97.8 | 24.6 | 15.3 | 22.8 | O=C(c1ccc(-c2nc(-c3ccc(C(F)(F)F)cc3)no2)cn1)N1CCN(Cc2ccc(OCC(F)(F)F)cc2)CC1 |
| > 1000 | – | – | – | – | O=C(c1ccccc1-c1nc(-c2ccc(C(F)(F)F)cc2)no1)N1CCN(Cc2ccc(OCC(F)(F)F)cc2)CC1 |
| > 1000 | – | – | – | – | CC(C)(C)c1ccc(-c2noc(-c3ccc(C(=O)N4CCN(Cc5ccc(OCC(F)(F)F)cc5)CC4)cn3)n2)cc1 |
| 173 | – | – | – | – | O=C(/C=C/c1ccc(OC(F)(F)F)cc1)N1CCN(C(=O)c2ccc(-c3nc(-c4ccc(C(F)(F)F)cc4)no3)nc2)CC1 |
| > 1000 | – | – | – | – | O=C(c1ccc(-c2nc(-c3ccc(C(F)(F)F)cc3)no2)nc1)N1CCN(Cc2c(F)cc(Br)cc2F)CC1 |
| > 1000 | – | – | – | – | O=C(c1ccc(-c2nc(-c3ncccn3)no2)nc1)N1CCN(Cc2ccc(OCC(F)(F)F)cc2)CC1 |
| > 1000 | – | – | – | – | O=C(c1ncccc1-c1nc(-c2ccc(C(F)(F)F)cc2)no1)N1CCN(Cc2ccc(OCC(F)(F)F)cc2)CC1 |
| 113 | – | – | – | – | COc1ccc(-c2noc(-c3ccc(C(=O)N4CCN(Cc5ccc(OCC(F)(F)F)cc5)CC4)cn3)n2)cc1 |
| 516 | – | – | – | – | O=C(c1ccc(-c2nc(-c3ccc(C(F)(F)F)cc3)cs2)nc1)N1CCN(Cc2ccc(OCC(F)(F)F)cc2)CC1 |
